Values quoted from earlier work as cited in PubChem BioAssay AID1259409 (Chemical Carcinogenesis Research Information System (CCRIS), 2018).

Test system: rodent chemically induced tumor inhibition, incidence and multiplicity
Experiment: CCRIS tumor inhibitor studies
Settings: for outcome: Carcinogen: DIETHYLNITROSAMINE [55-18-5], 0.005, 0.5, 500 PPM FOR 11 OR 43 WKS BEGINNING 1 WK AFTER CARCINOGEN (STUDY DURATION: 45 WKS), Route [Inhibitor]: DIET, Dose [Carcinogen]: 100 MG/KG BW TWICE AT 1 WK INTERVALS (STUDY DURATION: 45 WKS)

O=c1cc(-c2ccccc2)oc2ccccc12
tumour outcome (control, treated, inhibition, significance) (Carcinogen: 7,12-DIMETHYLBENZ[A]ANTHRACENE, 57-97-6, Dose [Inhibitor]: 0, 45 NMOL IN 0.2 ML ACETONE APPLIED 5 MIN PRIOR TO CARCINOGEN (STUDY DURATION: 21 WK), Route [Inhibitor]: DERMAL, Species: MOUSE, Strain/Sex: SENCAR/FEMALE, Target Tissue: Type of Lesion: SKIN: PAPILLOMA, Dose [Carcinogen]: 10 NMOL IN 0.2 ML ACETONE ONCE, Promoter: 12-O-TETRADECANOYLPHORBOL-13-ACETATE, 16561-29-8): 79%, 93%, -18%, not calculated | tumour outcome (control, treated, inhibition, significance) (Carcinogen: 7,12-DIMETHYLBENZ[A]ANTHRACENE, 57-97-6, Dose [Inhibitor]: 0, 450 NMOL IN 0.2 ML ACETONE APPLIED 5 MIN PRIOR TO CARCINOGEN (STUDY DURATION: 21 WK), Route [Inhibitor]: DERMAL, Species: MOUSE, Strain/Sex: SENCAR/FEMALE, Target Tissue: Type of Lesion: SKIN: PAPILLOMA, Dose [Carcinogen]: 10 NMOL IN 0.2 ML ACETONE ONCE, Promoter: 12-O-TETRADECANOYLPHORBOL-13-ACETATE, 16561-29-8): 79%, 100%, -27%, not calculated | tumour outcome (control, treated, inhibition, significance) (Carcinogen: 7,12-DIMETHYLBENZ[A]ANTHRACENE, 57-97-6, Dose [Inhibitor]: 0, 4500 NMOL IN 0.2 ML ACETONE APPLIED 5 MIN PRIOR TO CARCINOGEN (STUDY DURATION: 21 WK), Route [Inhibitor]: DERMAL, Species: MOUSE, Strain/Sex: SENCAR/FEMALE, Target Tissue: Type of Lesion: SKIN: PAPILLOMA, Dose [Carcinogen]: 10 NMOL IN 0.2 ML ACETONE ONCE, Promoter: 12-O-TETRADECANOYLPHORBOL-13-ACETATE, 16561-29-8): 79%, 80%, -1%, not calculated | tumour outcome (control, treated, inhibition, significance) (Carcinogen: 7,14-DIMETHYLBENZO[A,H]ANTHRACENE, 35335-07-0, Dose [Inhibitor]: 0, 45 NMOL IN 0.2 ML ACETONE APPLIED 5 MIN PRIOR TO CARCINOGEN (STUDY DURATION: 21 WK), Route [Inhibitor]: DERMAL, Species: MOUSE, Strain/Sex: SENCAR/FEMALE, Target Tissue: Type of Lesion: SKIN: PAPILLOMA, Dose [Carcinogen]: 47.5 NMOL IN 0.2 ML ACETONE ONCE, Promoter: 12-O-TETRADECANOYLPHORBOL-13-ACETATE, 16561-29-8): 97%, 97%, 0% | tumour outcome (control, treated, inhibition, significance) (Carcinogen: 7,14-DIMETHYLBENZO[A,H]ANTHRACENE, 35335-07-0, Dose [Inhibitor]: 0, 450 NMOL IN 0.2 ML ACETONE APPLIED 5 MIN PRIOR TO CARCINOGEN (STUDY DURATION: 21 WK), Route [Inhibitor]: DERMAL, Species: MOUSE, Strain/Sex: SENCAR/FEMALE, Target Tissue: Type of Lesion: SKIN: PAPILLOMA, Dose [Carcinogen]: 47.5 NMOL IN 0.2 ML ACETONE ONCE, Promoter: 12-O-TETRADECANOYLPHORBOL-13-ACETATE, 16561-29-8): 97%, 97%, 0% | tumour outcome (control, treated, inhibition, significance) (Carcinogen: 7,14-DIMETHYLBENZO[A,H]ANTHRACENE, 35335-07-0, Dose [Inhibitor]: 0, 4500 NMOL IN 0.2 ML ACETONE APPLIED 5 MIN PRIOR TO CARCINOGEN (STUDY DURATION: 21 WK), Route [Inhibitor]: DERMAL, Species: MOUSE, Strain/Sex: SENCAR/FEMALE, Target Tissue: Type of Lesion: SKIN: PAPILLOMA, Dose [Carcinogen]: 47.5 NMOL IN 0.2 ML ACETONE ONCE, Promoter: 12-O-TETRADECANOYLPHORBOL-13-ACETATE, 16561-29-8): 97%, 68%, 30%, not calculated | tumour outcome (control, treated, inhibition, significance) (Carcinogen: DIBENZO[A,H]ANTHRACENE, 53-70-3, Dose [Inhibitor]: 0, 45 NMOL IN 0.2 ML ACETONE APPLIED 5 MIN PRIOR TO CARCINOGEN (STUDY DURATION: 21 WK), Route [Inhibitor]: DERMAL, Species: MOUSE, Strain/Sex: SENCAR/FEMALE, Target Tissue: Type of Lesion: SKIN: PAPILLOMA, Dose [Carcinogen]: 200 NMOL IN 0.2 ML ACETONE ONCE, Promoter: 12-O-TETRADECANOYLPHORBOL-13-ACETATE, 16561-29-8): 100%, 93%, 7%, not calculated | tumour outcome (control, treated, inhibition, significance) (Carcinogen: DIBENZO[A,H]ANTHRACENE, 53-70-3, Dose [Inhibitor]: 0, 450 NMOL IN 0.2 ML ACETONE APPLIED 5 MIN PRIOR TO CARCINOGEN (STUDY DURATION: 21 WK), Route [Inhibitor]: DERMAL, Species: MOUSE, Strain/Sex: SENCAR/FEMALE, Target Tissue: Type of Lesion: SKIN: PAPILLOMA, Dose [Carcinogen]: 200 NMOL IN 0.2 ML ACETONE ONCE, Promoter: 12-O-TETRADECANOYLPHORBOL-13-ACETATE, 16561-29-8): 100%, 86%, 14%, not calculated | tumour outcome (control, treated, inhibition, significance) (Carcinogen: DIBENZO[A,H]ANTHRACENE, 53-70-3, Dose [Inhibitor]: 0, 4500 NMOL IN 0.2 ML ACETONE APPLIED 5 MIN PRIOR TO CARCINOGEN (STUDY DURATION: 21 WK), Route [Inhibitor]: DERMAL, Species: MOUSE, Strain/Sex: SENCAR/FEMALE, Target Tissue: Type of Lesion: SKIN: PAPILLOMA, Dose [Carcinogen]: 200 NMOL IN 0.2 ML ACETONE ONCE, Promoter: 12-O-TETRADECANOYLPHORBOL-13-ACETATE, 16561-29-8): 100%, 93%, 7%, not calculated | tumour outcome (control, treated, inhibition, significance) (Dose [Inhibitor]: 0, 1000 PPM IN DIET BEGINNING 8 WK PRIOR TO CARCINOGEN AND CONTINUING FOR 6 WK POST CARCINOGEN (STUDY DURATION: 68 WK), Route [Inhibitor]: ORAL, Species: FISH, Strain/Sex: RAINBOW TROUT, Target Tissue: Type of Lesion: LIVER: HEPATOCELLULAR CARCINOMA, Dose [Carcinogen]: 20 PPB IN DIET FOR 2 WK, Promoter: NONE USED): 43/118 (36%), 45/120 (38%), -5%, not significant

Clc1cccc(-c2ccc(Cl)c(Cl)c2Cl)c1Cl
tumour outcome (control, treated, inhibition, significance) (Carcinogen: DIETHYLNITROSAMINE, 55-18-5, Dose [Inhibitor]: 100 PPM IN DIET FOR 6 WK PRIOR TO CARCINOGEN DOSE (STUDY DURATION: 48 WK), Route [Inhibitor]: ORAL, Species: FISH, Strain/Sex: MT. SHASTA RAINBOW/MALE, FEMALE, Target Tissue: Type of Lesion: LIVER: HEPATOCELLULAR CARCINOMA AND HEPATOCHOLANGIOCELLULAR CARCINOMA, Dose [Carcinogen]: 250 PPM IN AQUEOUS SOLUTION FOR 24 HR, Promoter: NONE USED): 105/131 (80%), 112/140 (80%), 0%, not significant

[Mo].[Na+].[Na+].[O-2].[O-2].[O-2].[O-2]
tumour outcome (control, treated, inhibition, significance) (Carcinogen: N-METHYL-N-BENZYLNITROSAMINE, 937-40-6, Dose [Inhibitor]: 0.32 (BASAL MOLYBDENUM LEVEL), 2 PPM (HIGH MOLYBDENUM LEVEL) IN DIET BEGINNING 4 WK PRIOR TO CARCINOGEN DOSE AND CONTINU, Route [Inhibitor]: ORAL, Species: RAT, Strain/Sex: F344/MALE, Target Tissue: Type of Lesion: ESOPHAGUS: CARCINOMA, Dose [Carcinogen]: 2.5 MG/KG IN 0.2 ML OLIVE OIL 1/WK FOR 20 WK, Promoter: NONE USED): 30/41 (73%), 20/45 (44%), 40%, p<0.01 | tumour outcome (control, treated, inhibition, significance) (Carcinogen: N-METHYL-N-NITROSOUREA, 684-93-5, Dose [Inhibitor]: 20 PPM IN DRINKING WATER CONCURRENTLY WITH THE CARCINOGEN (STUDY DURATION: 56 WK), Route [Inhibitor]: ORAL, Species: RAT, Strain/Sex: BD6/MALE, Target Tissue: Type of Lesion: INTESTINE: ADENOCARCINOMA, Dose [Carcinogen]: 25 MG/KG 2/WK FOR 15 WK, Promoter: NONE USED): 6/20 (30%), 1/14 (7%), 77%, p>0.05

Clc1ccc(C(c2ccc(Cl)cc2)C(Cl)(Cl)Cl)cc1
outcome (Dose [Inhibitor]: 0, Dose [Inhibitor]: 0, Species: RAT, Strain/Sex: F344/MALE, Target Tissue: Type of Lesion: LIVER: HEPATOCELLULAR ADENOMA): 55%; 65%, -18%; 50%, 9%; 100%, -82% | outcome (Dose [Inhibitor]: 0, Dose [Inhibitor]: 0, Species: RAT, Strain/Sex: F344/MALE, Target Tissue: Type of Lesion: LIVER: HEPATOCELLULAR CARCINOMA): 60%; 30%, 50%; 65%, -8%; 100%, -67% | tumour outcome (control, treated, inhibition, significance) (Dose [Inhibitor]: 0, 7.5 MG 2/WK FOR 14 WK BEGINNING SIMULTANEOUSLY WITH CARCINOGEN TREATMENT (STUDY DURATION: 1 YR), Route [Inhibitor]: GAVAGE, Species: RAT, Strain/Sex: WISTAR/MALE, Target Tissue: Type of Lesion: LIVER: BENIGN TUMORS, Dose [Carcinogen]: 50 UG 2/WK FOR WK 1-4 OF STUDY THEN 75 UG 2/WK FOR WK 5-8, Promoter: NONE USED): 22/25 (88%), 9/21 (43%), 51%, p<0.001 | tumour outcome (control, treated, inhibition, significance) (Dose [Inhibitor]: 0, 7.5 MG 2/WK FOR 14 WK BEGINNING SIMULTANEOUSLY WITH CARCINOGEN TREATMENT (STUDY DURATION: 1 YR), Route [Inhibitor]: GAVAGE, Species: RAT, Strain/Sex: WISTAR/MALE, Target Tissue: Type of Lesion: LIVER: CARCINOMA, Dose [Carcinogen]: 50 UG 2/WK FOR WK 1-4 OF STUDY THEN 75 UG 2/WK FOR WK 5-8, Promoter: NONE USED): 14/25 (56%), 7/21 (33%), 41%, p<0.07
